Laboratory results: US10981911B2, “Imidazopyrrolopyridine as inhibitors of the JAK family of kinases” (Janssen Pharmaceutica NV, priority 2016, dated 2021)
Where two headings read alike, the source gives them in different places.

Legend:
P-gp (MDR1) = assay: MDCK-MDR1 permeability assay; assay type: in vitro ADME; settings: dog, MDCK-MDR1, pH 7.4, @ 5 μM; for Papp A→B at 60 min, 5 μM: apical to basolateral, without P-gp inhibitor; for Papp B→A at 60 min, 5 μM: basolateral to apical
Method: Permeability measurements were conducted according to the Cyprotex protocol using the MDCK-MDR1 cell line obtained from the NIH (Rockville, Md., USA). Cells between passage numbers 6-30 were seeded onto a Multiscreen Plate™ (Millipore) at a cell density of 3.4×10^5 cells/cm^2 and cultured for three days before permeability studies were conducted. The cells in this assay form a cohesive sheet of a single cell layer filing the surface area of the culture dish, also known as a confluent monolayer, and on day four the test compound was added to the apical side of the membrane and the transport of the compound across the monolayer was monitored over a time period of 60 min.
Test compounds were dissolved in DMSO at a concentration of 10 mM. The dosing solutions were prepared by diluting test compound with assay buffer (Hanks Balanced Salt Solution), pH 7.4, at a final concentration of 5 μM. For assessment of apical to basolateral (“A-B”) permeability, buffer was removed from the apical compartment and replaced with test compound dosing solution with or without the permeability glycoprotein (“PgP”, “P-gP”, “Pgp” or “P-gp”) inhibitor elacridar (2 μM). For assessment of basolateral to apical (“B-A”) permeability, buffer was removed from the companion plate and replaced with test compound dosing solution. Incubations were carried out in duplicate at 37° C. in an atmosphere of 5% CO2 with a relative humidity of 95%. Each assay included the reference markers propranolol (high permeability) and prazosin (PgP substrate). After incubation for 60 minutes, apical and basolateral samples were diluted and test compounds quantified by LC/MS/MS using an 8-point calibration in the range 0.0039 to 3 μM with appropriate dilution of the samples (receiver dilution factor=1; donor and C0 dilution factor=10). The permeability coefficient (Papp) for each compound was calculated from the following equation: Papp=(dQ/dt)/(C0×S), where dQ/dt is the rate of permeation of the drug across the cells, C0 is the donor compartment concentration at time zero, and S is the area of the cell monolayer.
The second and third columns in Table 7 show the values of Papp(A-B) for the apical-to-basolateral compound transport without (second column) and with a P-gp inhibitor (third column, noted as P^eapp(A-B)) that was elacridar. Papp(A-B) gives an indication of permeation extent across the cells in this assay, which is envisaged to model the transcellular transport across Pgp-expressing cells, such as Pgp-expressing gastrointestinal tract cells. P^eapp(A-B) values (Papp(A-B) in the presence of the P-gp inhibitor) given in column 3 are determined to confirm the role of P-gp in the compound efflux. […] Test compound efflux ratios are given in the fifth column of Table 7 as Papp(B-A)/Papp(A-B) by using the corresponding permeability coefficient values from the fourth and second columns in the same table.

[1] = Solubility assays in simulated gastric and simulated intestinal fluids; assay type: physicochemical; settings: thermodynamic from solid, 2-5 days
Method: Test compounds were dissolved in DMSO at a concentration of 10 mM. The test compounds were dispensed (20 μL) into Nunc 1-mL-96-Deep-Well-PP plates, and the DMSO was evaporated via nitrogen blow down from a TurboVap 96 for 6 hours or until a dry residue was produced. Then, 400 μL of solubility media was added to the well containing the dry solid. […] After the incubation period, the samples were filtered through an AcroPrep 1-mL-96-Filter plate into a new 2-mL-96-Deep-Well-PP plate, and the supernatants were quantified by UV-HPLC using a 3-point calibration ranging from 0.004-0.55 mM. The solubility for each compound was calculated from the following equation: […] Solubilities are reported as long as the compound under study was sufficiently stable to complete the corresponding solubility determination.

[2] = In vivo p.o. dosing: plasma and colon tissue concentrations (Protocols 1 and 2); design: species or system female C57BL/6 mice; settings: female, C57BL/6, mouse, po, mice, 25 mg/kg p.o.
Method: These protocols are described below under the heading In vivo Studies. Three non-fasted female C57BL/6 mice were orally administered test compound at a dose of 25 mg/kg p.o. as a solution in 20% hydroxypropyl-beta-cyclodextrin (HPβCD) at a dose volume of 5 mL/kg. Blood samples were collected at 0.5, 2, and 4 h post dose via retro-orbital bleed or venipuncture of the dorsal metatarsal vein. Blood samples were collected into tubes containing anticoagulant (Heparin-Na) and placed on wet ice. The plasma fraction was separated by centrifugation and frozen at −20° C. for up to 4 h and −80° C. after 4 h unless analyzed shortly after sample collection. Colon samples were collected at 4 h post dose. […] The colon was further washed by putting it in 5 mL of saline and shaken for 5 seconds. The colon sample was then patted dry, weighed, and homogenized as 1 part tissue (g) to 4 parts HPLC grade water (mL). Concentrations of the compound in plasma and colon homogenate were determined using a qualified liquid chromatography-triple quadrupole mass spectrometry (LC-MS/MS) method. […] Three non-fasted female C57BL/6 mice were orally administered test compound at a dose of 25 mg/kg p.o. as a solution in 20% HPβCD at a dose volume of 5 mL/kg. Blood samples were collected at 0.5, 2, and 4 h post dose via retro-orbital bleed or dorsal metatarsal vein. Blood samples were collected into tubes containing anticoagulant (Heparin-Na) and placed on wet ice. The plasma fraction was separated by centrifugation and frozen at −20° C. for up to 4 h and −80° C. after 4 h unless analyzed shortly after sample collection. Colon samples were collected at 4 h post dose. From 2 cm below the cecum, a 4 cm sample of the colon was dissected, cut open on the longitudinal axis, and the solid contents removed by flushing with 2 mL of saline. The colon was further washed by putting it in 5 mL of saline and shaken for 5 seconds. The colon sample was then patted dry, weighed, and homogenized as 1 part tissue (g) to 4 parts HPLC grade water (mL). Concentrations of the compound in plasma and colon homogenate were determined using a qualified liquid chromatography-triple quadrupole mass spectrometry (LC-MS/MS) method.

[3] = fassif, simulated intestinal fluid, fasted state pH 6.5, ambient temperature, read-out: SIF solubility
[4] = simulated gastric fluid, ambient temperature, read-out: SGF solubility
[5] = colon, read-out: Colon Concentration After p.o. Dosing, Mean

Row | Structure (SMILES) | Papp A→B at 60 min, 5 μM (P-gp (MDR1)) [×10⁻⁶ cm/s] | Papp B→A at 60 min, 5 μM (P-gp (MDR1)) [×10⁻⁶ cm/s] | solubility [1, 3] [µM] | solubility [1, 4] [µM] | concentration at 4 h [2, 5] [ng/g] | concentration at 0.5 h ([2]; plasma, Time = 0.5 h, read-out: Plasma Concentration After p.o. Dosing, Mean) [ng/mL] | concentration at 2 h ([2]; plasma, Time = 2 h, read-out: Plasma Concentration After p.o. Dosing, Mean) [ng/mL] | concentration at 4 h ([2]; plasma, read-out: Plasma Concentration After p.o. Dosing, Mean) [ng/mL]
1 | Cn1cc(NC(=O)Cc2nc3cnc4[nH]ccc4c3n2[C@H]2CC[C@H](CC#N)CC2)cn1 [Ex. 38, 2-(1-((1r,4r)-4-(Cyanomethyl)cyclohexyl)-1,6-dihydroimidazo[4,5-d]pyrrolo[2,3-b]pyridin-2-yl)-N-(1-methyl-1H-pyrazol-4-yl)acetamide] | < 0.4 | 1.8 | > 400 | > 400 | 7680 | 15.1 | 6.2 | 3.9
2 | N#CC[C@H]1CC[C@H](n2c(CC(=O)Nc3cc[nH]n3)nc3cnc4[nH]ccc4c32)CC1 [Ex. 74, 2-(1-((1r,4r)-4-(Cyanomethyl)cyclohexyl)-1,6-dihydroimidazo[4,5-d]pyrrolo[2,3-b]pyridin-2-yl)-N-(1H-pyrazol-3-yl)acetamide] | < 0.4 | 1.1 | > 400 | > 400 | 4780 |  |  | 
